# Patent publication US9745288B2, “Compounds and methods for treating cancer by inhibiting the urokinase receptor” (Indiana University Research and Technology Corporation, priority 2011, dated 2017)
# How the values were obtained:
# TMD-231 cells = experiment: TMD-231 mammary fat pad xenograft, tumor growth and lung metastasis; type: in vivo
# Excerpt: Mouse Xenograft Studies. NOD/SCID mice were obtained from the on-site breeding colony maintained by the In Vivo Therapeutics Core at the Indiana University Simon Cancer Center (IUSM, Indianapolis, Ind.) and maintained in pathogen-free conditions within the laboratory animal resources center (LARC) at the Indiana University School of Medicine according to an approved protocol by the Institutional animal care and use committee (IACUC) committee.
# For metastasis studies, m.f.p. tumors were allowed to grow to approximately 100 mm^3 mice. Mice were assigned to treatment group based on average tumor size/weight. Following a recovery period of two days, mice received treatment of investigational drug (n=15) or a PBS solvent control (n=15). After four weeks mice were euthanized, the lungs were resected, fixed in formalin solution, sectioned, and stained with hematoxylin and eosin (H&E) for analysis. […] Tumor volume were be calculated as Length*Width^2/2 in millimeters.
# TMD-231 cells were inoculated into the mammary fat pad of female NOD/SCID mice. Dosing was initiated at day 18 post implantation. Animals were randomized and treated with vehicle or with IPR-69 by daily oral gavage at a dose of 150 mg/kg (n=11). Tumor volumes were determined by caliper measurements on a […], and calculated according to the formula (α2×β)/2, where α is the shorter and β is the longer of the two dimensions. Tumor volumes were determined by caliper measurements on a weekly basis. The study was conducted over a period of 68 days. […] Once the tumor volume reached 30 mm^3 to 50 mm^3, animals were randomized and treated with vehicle alone as control or 150 mg/kg IPR-69 three times a week for 10 weeks by oral gavage. Tumor volumes were determined by caliper measurements obtained weekly. Over the course of the study, several mice were sacrificed to determine whether breast tumor cells had metastasized to the lungs. At the end of the study, control and experimental animals were sacrificed and organs (lungs) were removed and evaluated for the presence of tumors. The number and size of metastasis in two to five fields per sample were calculated. […] Briefly, percentage of staining was categorized as “0” if there was no nuclear/cytoplasmic expression, “1” for up to 10% positive tumor nuclei/cells, “2” for 11-20% and until a maximum score of “10”. Intensity was scored as “1+,” “2+,” and “3+” for weak, moderate and strong staining respectively.
# [1] = In vivo PK study, plasma HPLC MS/MS; set-up: species or system mouse; conditions: mice
# Method: Pharmacokinetics of the Leads in Rodents. A method to quantify IPR-69 in plasma was developed using HPLC-MS/MS (API 3200; Applied Biosystems). A 20 μL plasma sample was extracted with methyl tertiary butyl ether (MTBE) under neutral conditions (0.1 M phosphate buffer pH=7.4) using temazepam as the internal standard. The extract is evaporated, reconstituted with mobile phase and injected into the HPLC. The HPLC column is a C-8 50×4.6 mm 5-μm column and separation of UPR and temazepam occurred by a linear gradient mobile phase starting with acetonitrile:0.1% formic acid (10:90) and changing to 80:20. The m/z Q1 and Q3 settings on the API 3200 for UPR and temazepam are 418/297 and 301/255, respectively. The lower limit of quantification of IPR-69 is 1 ng/mL using 20 μL of plasma. A standard response curve of IPR-69 was created with concentrations that varied from 1 ng/mL to 1000 ng/mL using 300 ng/mL of temazepam for each sample. To determine drug concentrations of the lead inhibitors in the pharmacological models, the PK properties of the compounds in mice must be characterized. The PK of IPR-69 was determined in NOD/SCID mice following a single dose given PO. The study design used 3 mice per time point. Blood was collected at time intervals from 0 to 24 hours after dosing (8 time points), quantified by the procedure described above. Pharmacokinetic parameters for IPR-69 including area under the curve (AUC), area under the moment curve (AUMC), and t1/2 were estimated using non-compartmental methods with Excel®. The maximum plasma concentration (Cmax) and time of Cmax (tmax) were obtained from the data. The AUC from zero to infinity (AUC0-∞) was estimated from the AUC0-t (time zero to the last quantifiable concentration Clast) and the AUC from Clast to infinity, Clast/kel, where kel is the rate constant of elimination. The AUMC0-∞ was estimated by an analogous manner. The systemic clearance (Cl/F, where F=bioavailability) of IPR-69 was calculated from the dose and AUC0-∞. […]
# MMP-9 = experiment: Gelatin zymography of MDA-MB-231 conditioned medium; type: cell-based, human
# Method: Gelatin Zymography. MDA-MB-231 cells were treated with different concentrations of uPAR compounds in serum free medium for 24 h, the conditioned medium were collected, concentrated by Amicon Ultra centrifugal filter units (Millipore, #UFC500324), proteins were normalized and electrophoresed on sodium dodecyl sulfate (SDS)-polyacrylamide gels (10%) containing 1 mg/mL gelatin. After electrophoresis, the gel was washed twice in 50 mM Tris-HCl (pH 7.6) containing 5 mM CaCl2 and 2.5% Triton X-100 for 30 minutes at room temperature and incubated in buffer that contained 50 mM Tris-HCl (pH 7.6), 200 mM NaCl, 10 mM CaCl2 at 37° C. for 36 h. Then, the gels were stained with 0.05% Coomassie brilliant blue (CBB) and destained with 30% methanol in 10% acetic acid. Areas of gelatinolytic degradation appeared as transparent bands on the blue stained background of the gel. Data were quantified using Image J.
# To degrade collagen within the ECM, malignant cells unleash a series of extracelullar proteases known as matrix metalloproteinases (MMPs).
# MDA-MB-231 cells = experiment: Adhesion assay on fibronectin-coated wells; type: cell-based, human; conditions: Homo sapiens; MDA-MB-231, fibronectin
# Method: Adhesion Assay. Quantitative cell adhesion assays were carried out in nontissue culture treated 96-well microtiter plates (Evergreen Scientific, Los Angeles, Calif.) which were coated with 15 μg/mL fibronectin (Sigma) for 1 h at room temperature. Fibronectin coated and uncoated control wells were blocked for 1 h with 3% heat denatured bovine serum albumin (BSA) at 37° C. Cells were split one day prior to the experiment to achieve a subconfluent culture. […] The wells were washed and the number of adherent cells was quantified by crystal violet staining at 570 nm.^19,20 The results were shown by means±SE.
smiles,measurement,setting,value
"Cc1cc(C)cc(NC(=O)c2cnn(-c3ccc(C(C)C)cc3)c2C2CCNCC2)c1 [IPR-69, N-(3,5-dimethylphenyl)-1-(4-isopropylphenyl)-5-(piperidin-4-yl)-1H-pyrazole-4-carboxamide]",treated mice with metastatic lesions of score >2,TMD-231 cells; 150 mg/kg oral gavage,3
same,tumor volume at the end of the study,"TMD-231 cells; 150 mg/kg oral gavage, average, 68 days",779 mm^3
same,treated mice with signs of metastatic lesions in the lungs,"TMD-231 cells; 150 mg/kg oral gavage, n=11",3 out of 11
same,metastasis to the lungs,TMD-231 cells; compared with untreated mice,less extensive metastasis to the lungs
same,tolerability,"TMD-231 cells; doses as high as 150 mg/kg, mice",well tolerated
same,half-life,"[1]; NOD/SCID, mouse, plasma, estimated, single oral gavage of 50 mg/kg",~2 h
same,oral bioavailability,[1],orally bioavailable
same,time of maximum level,[1]; single oral gavage of 50 mg/kg,approximately 5 hours
same,MMP-9 activity in gelatin zymography,MMP-9,some inhibition of MMP-9
same,IC50,"MMP-9; estimated, read-out: IC50 for inhibition of MMP-9 activity",25 µM
same,IC50,MDA-MB-231 cells,45 µM
